Reference: US20210087159A1, “TETRAHYDROCANNABINOLIC- CA[…] DERIVATIVES AND USES THEREOF” (AL&AM […]., priority 2018, published 2021)

Columns and labels:
Type in all cases: cell-based
[1] = tested on: T47D, breast ductal carcinoma; experiment: CellTiter-Glo cell viability assay, cancer cell cytotoxicity/anti-proliferation panel (Chempartner); conditions: Table 5, T47D cells, 72 hours; for IC50: Homo sapiens, read-out: AbsIC50; for Inhibition %: 10 μM starting, 10-pt, 3-fold dilution
Experimental: In this study, the biological activity of certain compounds of the present invention on cancer cell cytotoxicity/anti-proliferation panel was tested using the CellTiter-Glo® cell viability assay. The compounds were dissolved in DMSO to make 10 mM solution.
The cell lines tested were all selected from the Chempartner's cell collection and included: Caco-2 ATCC colon adenocarcinoma; TE-6 RIKEN esophagus, carcinoma; PC-3 ATCC prostate adenocarcinoma; T47D, breast ductal carcinoma; U251, brain human glioma; A549, lung carcinoma; OMP-2, multiple myeloma; SK-HEP-1, liver adenocarcinoma; PANC-1, pancreas ductal carcinoma; AsPC-1, pancreas, ductal carcinoma; and U-87 MG, brain glioblastoma.
For the assays described herein, absolute inhibition of cells growth (%) and absolute IC50 (Abs IC50; […]) were used to derive a value that can be used to compare results within and across runs in the same assay, as well as between different assays.
• a. Prepare complete medium: Add FBS and appropriate additives according to the information sheet provided by the vendor. Mix gently. • b. Check the cell name and complete medium and passage number marked on the flask. For adherent cell lines, refer to c to k. For suspension cell lines, refer to g to k. • c. Remove and discard culture medium using a vacuum pump. • d. Briefly rinse the cell layer with 0.25% (w/v) trypsin-0.038% (w/v) EDTA solution to remove all traces of serum that contains trypsin inhibitor. • e. Add 3.0 ml of trypsin-EDTA solution to flask and observe cells under an inverted microscope until cell layer is dispersed. • f. Add 8.0 ml of complete growth medium and aspirate cells by gently pipetting. • g. Transfer the cell suspension to a centrifuge tube and centrifuge at 800-1000 rpm for 3-5 minutes. • h. Discard the supernatant using a vacuum pump. • i. Add appropriate volume of complete medium. Suspend the cell pellet by gently pipetting. • j. Count the cell numbers with Vi-cell XR and adjust cells to appropriate density. • k. Add 100 μL of cell suspension to 96-well opaque-walled clear bottom plates according to the planned plate layout and place the plates in the CO2 incubator overnight. • l. Plate layout:
• Plate preparation of testing articles. 10 mM stock solution of each one of the compounds (provided as powder) was prepared in DMSO. […] 0.5 μL of each of the diluted compounds was transferred to the wells containing 100 μL of the culture medium. The total dilution was 200 fold. Cells were incubated with the compounds for 72 hours at 5% CO2, 37° C.
• Thaw the CellTiter-Glo buffer and equilibrate to room temperature prior to use. • Equilibrate the lyophilized CellTiter-Glo substrate to room temperature prior to use. • Transfer the appropriate volume of CellTiter-Glo buffer into the amber bottle containing CellTiter-Glo substrate to reconstitute the lyophilized enzyme/substrate mixture. This forms the CellTiter-Glo reagent. • Mix by gently vortexing, swirling or by inverting the contents to obtain a homogeneous solution. The CellTiter-Glo substrate should go into solution easily in less than one minute.
• Observe the cell morphology under an inverted microscope after corresponding treatment. • Equilibrate the plate and its contents to room temperature for approximately 30 minutes. • Add 100 μL of CellTiter-Glo reagent to the assay plate by Multidrop Combi instrument. • Mix contents for 10 minutes on an orbital shaker to induce cell lysis. • Allow the plate to incubate at room temperature for 10 minutes to stabilize luminescent signal. • Paste the clear bottom with white back seal and record luminescence with Enspire. The settings should be: Luminescence, measurement time 0.1 ms.
Inhibition (%) and absolute IC50 (μM) of each compound was calculated with XLFit curve fitting software that is compatible to Activity Base.

TNF-α = experiment: LPS induced cytokine release assay, TNF-α by ELISA in PBMCs; conditions: human PBMCs; for TNF-α: 72 h; for change of TNF-α expression in LPS-treated cells: tested concentrations of 1 M and 10 M (so in the source)
Source text: (§1) This study was aimed to test the effect of 12 compounds (THCA, Ia1, Ia5, Ia6, Ia9, Ia11, Ia15, Ia17, Ia24, Ia25, Ia27, and Ia28) on human peripheral blood mononuclear cells (PBMCs) challenged by lipopolysaccharide (LPS) through monitoring multiple inflammatory endpoints.
(§2) Blood samples were collected from healthy volunteers according to protocols that have been reviewed and approved by the Chempartner Institutional Ethic Committee (IEC) upon signing an Informed Consent Form (ICF).
(§3) Fresh PBMCs were isolated and seeded into 96-well plate, and diluted solutions of the tested compounds and 0.1 μg/mL LPS were then added (in triplicates). To serve as control, 3 wells with PBMCs only, 3 wells with 0.1 μg/mL LPS, and 2 wells with 1 μg/mL dexamethasone (Dex) and 0.1 μg/mL LPS were included. After 72 hours incubation, supernatant was collected for tumor necrosis factor-α (TNF-α) measurement by enzyme-linked immunosorbent assay (ELISA), and cell pellets were harvested for cell proliferation measurement by CellTiter-Glo® Luminescent Cell Viability Assay (CTG).
(§4) The human blood sample from an individual donor was diluted by the same volume of sterile phosphate buffered solution (PBS) and mixed sufficiently by gentle shake. 15 mL Lymphoprep™ medium was transferred into a new 50 mL centrifuge tube, and the diluted blood sample (30 mL) was then carefully added onto the surface of the medium, which consequently contained Ficoll 400 and blood in a volume ratio of 1:2. Four interfaces were observed after centrifugation, which are, from top to bottom, layers of plasma, mononuclear cells, Ficoll medium, and red blood cells (RBCs). Plasma was absorbed, and mononuclear cells were then transferred into another new sterile centrifuge tube. Then, sterile PBS buffer was added into the collected PBMCs for washing, at a volume ratio of 3:1. PBMCs were washed with 5-10 mL PBS twice before cell counting with cytometer. Cells were centrifuged at 350×g, for 10 min, at 20° C. with the acceleration (5) and deceleration (5) settings during the centrifugation. The cells were resuspended with RPMI 1640 complete medium (containing 10% FBS) for assay, and the density was adjusted with RPMI 1640 complete medium to the final concentration of 2E6 cells/mL. Cells suspension of the PBMCs (100 μL/well) were seeded into 96-well plate (#3903).
(§5) Diluted solutions of the tested compounds were prepared with RPMI 1640 complete medium according to the following layout. Compounds were prepared at 5-fold of concentration (50 μM), and then were diluted to the working concentration of 10 μM with RPMI 1640 complete medium and made 10-fold serially dilution (2 points). The diluted compounds (50 μL/well) were added to the indicated wells, and the plate was incubated at 37° C., 5% CO2, for 72 h.
(§6) LPS (0.1 μg/mL, 100 μL) was added into each well. Dex (1 μg/mL) was included as a positive control. Plate was incubated at 37° C., 5% CO2 for 72 h. Supernatant was collected to measure TNF-α by ELISA. Cell proliferation was detected by CTG.

[2] = tested on: human peripheral blood mononuclear cells (PBMCs); experiment: Cell proliferation of LPS-challenged PBMCs by CellTiter-Glo (CTG); conditions: human PBMCs
Source text: as §1, §2, §3, §4, §5, §6

[3] = compound 1 μM + 0.1 μg/mL LPS, ELISA (LPS control 18.16)
[4] = compound 10 μM + 0.1 μg/mL LPS, ELISA (LPS control 18.16)
[5] = compound 1 μM + 0.1 μg/mL LPS, 72 h (LPS control 84.50)
[6] = compound 10 μM + 0.1 μg/mL LPS, 72 h (LPS control 84.50)

| Structure (SMILES) | IC50 [1] | Inhibition % [1] | TNF-α (TNF-α; [3]) | TNF-α (TNF-α; [4]) | change of TNF-α expression in LPS-treated cells (TNF-α) | CTG signal [2, 5] | CTG signal [2, 6] | decrease of the level of TNF-α as compared to LPS-treated cells (TNF-α; 1 μg/mL Dex) | TNF-α (TNF-α; 1 μg/ml Dex + 0.1 μg/ml LPS + 0.1% DMSO) | CTG signal ([2]; 1 μg/ml Dex + 0.1 μg/ml LPS + 0.1% DMSO, 72 h) |
| --- | --- | --- | --- | --- | --- | --- | --- | --- | --- | --- |
| CCCCCc1cc2c(c(O)c1CNCCCN1CCOCC1)[C@@H]1C=C(C)CC[C@H]1C(C)(C)O2 [Ia21, (6aR,10aR)-6,6,9-trimethyl-2-(((3-morpholinopropyl)amino)methyl)-3-pentyl-6a,7,8,10a-tetrahydro-6H-benzo[c]chromen-1-ol] | > 10 µM | 21.68% | – | – | – | – | – | – | – | – |
| CCCCCc1cc2c(c(O)c1C(=O)NCC1CC1)[C@@H]1C=C(C)CC[C@H]1C(C)(C)O2 [Ia5, (6aR,0aR)—N-(cyclopropylmethyl)-1-hydroxy-6,6,9-trimethyl-3-pentyl-6a,7,8,10a-tetrahydro-6H-benzo[c]chromene-2-carboxamide] | > 10 µM | 7.89% | 19.60 pg/mL | 32.33 pg/mL | increased TNF-α expression | 74.73 10^4 | 76.26 10^4 | – | – | – |
| CCCCCc1cc2c(c(O)c1C(=O)Nc1ccc(N3CCOCC3)cc1)[C@@H]1C=C(C)CC[C@H]1C(C)(C)O2 [Ia17, (6aR,0aR)-1-hydroxy-6,6,9-trimethyl-N-(4-morpholinophenyl)-3-pentyl-6a,7,8,10a-tetrahydro-6H-benzo[c]chromene-2-carboxamide] | – | – | 16.44 pg/mL | 24.59 pg/mL | increased TNF-α expression | 74.83 10^4 | 72.61 10^4 | – | – | – |
| CCCCCc1cc2c(c(O)c1C(=O)S)[C@@H]1C=C(C)CC[C@H]1C(C)(C)O2 [Ia25, (6aR,0aR)-1-hydroxy-6,6,9-trimethyl-3-pentyl-6a,7,8,10a-tetrahydro-6H-benzo[c]chromene-2-carbothioic S-acid] | – | – | 42.50 pg/mL | 36.82 pg/mL | decreased TNF-α expression | 83.27 10^4 | 75.29 10^4 | – | – | – |
| CCCCCc1cc2c(c(O)c1-c1nnc(C)o1)[C@@H]1C=C(C)CC[C@H]1C(C)(C)O2 [Ia24, (6aR,0aR)-6,6,9-Trimethyl-2-(5-methyl-1,3,4-oxadiazol-2-yl)-3-pentyl-6a,7,8,10a-tetrahydro-6H-benzo[c]chromen-1-ol] | – | – | 32.33 pg/mL | 28.53 pg/mL | decreased TNF-α expression | 77.88 10^4 | 62.41 10^4 | – | – | – |
| CCCCCc1cc2c(c(O)c1C(=O)NCc1ccncc1)[C@@H]1C=C(C)CC[C@H]1C(C)(C)O2 [Ia11, 1-hydroxy-6,6,9-trimethyl-3-pentyl-N-(pyridin-4-ylmethyl)-6a,7,8,10a-tetrahydro-6H-benzo[c]chromene-2-carboxamide] | > 10 µM | 15.80% | 28.40 pg/mL | 15.39 pg/mL | decreased TNF-α expression | 72.49 10^4 | 74.91 10^4 | – | – | – |
| CCCCCc1cc2c(c(O)c1C(N)=O)[C@@H]1C=C(C)CC[C@H]1C(C)(C)O2 [Ia1, (6aR,0aR)-1-hydroxy-6,6,9-trimethyl-3-pentyl-6a,7,8,10a-tetrahydro-6H-benzo[c]chromene-2-carboxamide] | – | – | 16.30 pg/mL | 11.85 pg/mL | – | 74.10 10^4 | 70.03 10^4 | – | – | – |
| CCCCCc1cc2c(c(O)c1C(=O)NCCOC)[C@@H]1C=C(C)CC[C@H]1C(C)(C)O2 [Ia4, (6aR,0aR)-1-hydroxy-N-(2-methoxyethyl)-6,6,9-trimethyl-3-pentyl-6a,7,8,10a-tetrahydro-6H-benzo[c]chromene-2-carboxamide] | > 10 µM | 3.13% | – | – | – | – | – | – | – | – |
| C[C@@H]1C[C@H]2[C@@H]3CCC4=CC(=O)C=C[C@]4(C)[C@@]3(F)[C@@H](O)C[C@]2(C)[C@@]1(O)C(=O)CO [Dex, dexamethasone, reference compound] | – | – | – | – | – | – | – | 2.5 folds | 5.38 pg/mL | 65.51 10^4 |
